Measured values taken from ChEMBL document CHEMBL1134021, “Thienopyridines: nitric oxide synthase inhibitors with potent in vivo activity” (Bioorg Med Chem Lett, 2001).

Columns and labels:
Nitric oxide synthase 3 = target: T1, Nitric oxide synthase 3 (Homo sapiens, UniProt P29474); experiment: Ability to inhibit the conversion of [3H]L-Arg to [3H]L-citrulline catalyzed by e-NOS from HUVEC cells; type: functional, cell-based
T1 sequence (P29474 whole entry): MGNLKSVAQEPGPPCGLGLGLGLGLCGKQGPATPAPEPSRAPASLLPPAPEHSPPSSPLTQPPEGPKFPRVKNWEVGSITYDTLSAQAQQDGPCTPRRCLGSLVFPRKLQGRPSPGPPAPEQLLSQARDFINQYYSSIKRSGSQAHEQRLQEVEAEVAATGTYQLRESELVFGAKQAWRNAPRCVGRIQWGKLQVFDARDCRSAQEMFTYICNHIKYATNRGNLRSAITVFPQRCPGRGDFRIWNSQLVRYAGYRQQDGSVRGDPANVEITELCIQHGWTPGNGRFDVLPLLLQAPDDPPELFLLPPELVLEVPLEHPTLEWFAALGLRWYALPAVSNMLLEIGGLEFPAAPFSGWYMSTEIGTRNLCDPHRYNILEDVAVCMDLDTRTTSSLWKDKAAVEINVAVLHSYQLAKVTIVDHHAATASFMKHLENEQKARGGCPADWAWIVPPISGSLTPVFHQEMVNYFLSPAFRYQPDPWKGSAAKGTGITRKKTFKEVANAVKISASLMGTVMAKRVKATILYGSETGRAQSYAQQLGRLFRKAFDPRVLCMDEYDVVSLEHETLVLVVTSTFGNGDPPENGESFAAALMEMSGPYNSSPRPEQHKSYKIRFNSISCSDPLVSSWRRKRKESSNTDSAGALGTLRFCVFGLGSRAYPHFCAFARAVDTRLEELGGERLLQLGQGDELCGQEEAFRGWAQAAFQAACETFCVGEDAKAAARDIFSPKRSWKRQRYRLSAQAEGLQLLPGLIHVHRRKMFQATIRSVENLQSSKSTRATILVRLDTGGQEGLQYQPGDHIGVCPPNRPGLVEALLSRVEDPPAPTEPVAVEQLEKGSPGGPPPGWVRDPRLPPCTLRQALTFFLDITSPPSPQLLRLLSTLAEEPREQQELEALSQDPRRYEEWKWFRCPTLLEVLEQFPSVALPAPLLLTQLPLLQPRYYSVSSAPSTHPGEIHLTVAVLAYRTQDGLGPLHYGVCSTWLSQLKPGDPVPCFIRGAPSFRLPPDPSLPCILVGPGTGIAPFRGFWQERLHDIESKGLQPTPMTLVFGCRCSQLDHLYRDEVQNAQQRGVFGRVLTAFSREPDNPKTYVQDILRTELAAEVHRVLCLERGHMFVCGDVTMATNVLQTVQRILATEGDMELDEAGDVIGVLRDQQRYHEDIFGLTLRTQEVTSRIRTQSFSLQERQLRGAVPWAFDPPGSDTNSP

Nitric oxide synthase 1 = Nitric oxide synthase 1 (Rattus norvegicus, UniProt P29476); experiment: Ability to inhibit the conversion of [3H]-L-Arg to [3H]L-citrulline catalyzed by n-NOS from rat cerebellum; type: functional, tissue-based
[1] = target: Nitric oxide synthase, inducible (Homo sapiens, UniProt P35228); experiment: Ability to inhibit the conversion of [3H]L-Arg to [3H]L-citrulline catalyzed by i-NOS from human DLD-1 cells; type: functional, cell-based
HUVEC = experiment: Ability to inhibit the conversion of [3H]L-Arg to [3H]L-citrulline catalyzed by e-NOS from HUVEC cells at 100 uM concentration; type: functional; conditions: Homo sapiens
Rattus norvegicus [2] = experiment: In vivo inhibition of iNOS is determined from the inhibition of LPS-induced nitrite production measured in rat blood plasma at 3.2 umol/kg for 15 min; type: functional; conditions: 0.25 h
DLD-1 = experiment: Concentration required to inhibit nitric oxide synthesis in DLD-1 cells; type: functional, cell-based; conditions: Homo sapiens
Rattus norvegicus [3] = experiment: Dose required for half maximal increase in mean arterial blood pressure of 40 mmHg after 15 min in anaesthetised rats, as a measure of eNOS activity; type: functional
Rattus norvegicus [4] = experiment: In vivo inhibition of iNOS is determined from the inhibition of LPS-induced nitrite production measured in rat blood plasma at 800 umol/kg for 15 min; type: functional; conditions: 0.25 h

Nitric oxide synthase, inducible, sequence (P35228 whole entry): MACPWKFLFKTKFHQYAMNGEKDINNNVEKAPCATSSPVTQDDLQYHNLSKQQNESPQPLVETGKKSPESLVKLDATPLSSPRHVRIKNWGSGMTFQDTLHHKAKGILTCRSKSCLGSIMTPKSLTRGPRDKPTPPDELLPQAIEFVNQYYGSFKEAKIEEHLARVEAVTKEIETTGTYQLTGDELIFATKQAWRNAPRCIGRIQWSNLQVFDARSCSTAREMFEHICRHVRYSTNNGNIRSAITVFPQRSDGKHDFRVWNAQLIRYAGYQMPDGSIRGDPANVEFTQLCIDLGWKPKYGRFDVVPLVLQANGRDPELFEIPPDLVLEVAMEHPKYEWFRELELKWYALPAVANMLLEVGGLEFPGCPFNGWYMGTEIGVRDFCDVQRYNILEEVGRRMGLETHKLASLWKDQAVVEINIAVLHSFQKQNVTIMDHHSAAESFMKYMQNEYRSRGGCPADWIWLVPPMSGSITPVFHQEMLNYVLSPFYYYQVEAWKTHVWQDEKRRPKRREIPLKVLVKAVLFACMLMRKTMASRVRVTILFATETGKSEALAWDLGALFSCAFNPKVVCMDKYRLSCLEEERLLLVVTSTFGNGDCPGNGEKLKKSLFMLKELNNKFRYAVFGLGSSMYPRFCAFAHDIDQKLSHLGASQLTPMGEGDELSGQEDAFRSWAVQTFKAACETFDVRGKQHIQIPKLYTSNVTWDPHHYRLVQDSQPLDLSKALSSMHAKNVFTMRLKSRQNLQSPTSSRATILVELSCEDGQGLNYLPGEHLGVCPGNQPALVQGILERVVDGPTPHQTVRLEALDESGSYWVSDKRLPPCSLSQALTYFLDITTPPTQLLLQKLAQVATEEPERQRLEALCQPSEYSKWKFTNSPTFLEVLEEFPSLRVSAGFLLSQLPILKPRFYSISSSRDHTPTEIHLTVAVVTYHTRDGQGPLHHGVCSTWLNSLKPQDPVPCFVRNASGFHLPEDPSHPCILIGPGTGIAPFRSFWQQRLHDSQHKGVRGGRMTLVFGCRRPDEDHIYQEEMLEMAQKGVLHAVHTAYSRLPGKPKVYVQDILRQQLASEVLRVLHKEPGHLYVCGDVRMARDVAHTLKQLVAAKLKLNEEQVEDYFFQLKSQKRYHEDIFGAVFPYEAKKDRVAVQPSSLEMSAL
Nitric oxide synthase 1, sequence (P29476 whole entry): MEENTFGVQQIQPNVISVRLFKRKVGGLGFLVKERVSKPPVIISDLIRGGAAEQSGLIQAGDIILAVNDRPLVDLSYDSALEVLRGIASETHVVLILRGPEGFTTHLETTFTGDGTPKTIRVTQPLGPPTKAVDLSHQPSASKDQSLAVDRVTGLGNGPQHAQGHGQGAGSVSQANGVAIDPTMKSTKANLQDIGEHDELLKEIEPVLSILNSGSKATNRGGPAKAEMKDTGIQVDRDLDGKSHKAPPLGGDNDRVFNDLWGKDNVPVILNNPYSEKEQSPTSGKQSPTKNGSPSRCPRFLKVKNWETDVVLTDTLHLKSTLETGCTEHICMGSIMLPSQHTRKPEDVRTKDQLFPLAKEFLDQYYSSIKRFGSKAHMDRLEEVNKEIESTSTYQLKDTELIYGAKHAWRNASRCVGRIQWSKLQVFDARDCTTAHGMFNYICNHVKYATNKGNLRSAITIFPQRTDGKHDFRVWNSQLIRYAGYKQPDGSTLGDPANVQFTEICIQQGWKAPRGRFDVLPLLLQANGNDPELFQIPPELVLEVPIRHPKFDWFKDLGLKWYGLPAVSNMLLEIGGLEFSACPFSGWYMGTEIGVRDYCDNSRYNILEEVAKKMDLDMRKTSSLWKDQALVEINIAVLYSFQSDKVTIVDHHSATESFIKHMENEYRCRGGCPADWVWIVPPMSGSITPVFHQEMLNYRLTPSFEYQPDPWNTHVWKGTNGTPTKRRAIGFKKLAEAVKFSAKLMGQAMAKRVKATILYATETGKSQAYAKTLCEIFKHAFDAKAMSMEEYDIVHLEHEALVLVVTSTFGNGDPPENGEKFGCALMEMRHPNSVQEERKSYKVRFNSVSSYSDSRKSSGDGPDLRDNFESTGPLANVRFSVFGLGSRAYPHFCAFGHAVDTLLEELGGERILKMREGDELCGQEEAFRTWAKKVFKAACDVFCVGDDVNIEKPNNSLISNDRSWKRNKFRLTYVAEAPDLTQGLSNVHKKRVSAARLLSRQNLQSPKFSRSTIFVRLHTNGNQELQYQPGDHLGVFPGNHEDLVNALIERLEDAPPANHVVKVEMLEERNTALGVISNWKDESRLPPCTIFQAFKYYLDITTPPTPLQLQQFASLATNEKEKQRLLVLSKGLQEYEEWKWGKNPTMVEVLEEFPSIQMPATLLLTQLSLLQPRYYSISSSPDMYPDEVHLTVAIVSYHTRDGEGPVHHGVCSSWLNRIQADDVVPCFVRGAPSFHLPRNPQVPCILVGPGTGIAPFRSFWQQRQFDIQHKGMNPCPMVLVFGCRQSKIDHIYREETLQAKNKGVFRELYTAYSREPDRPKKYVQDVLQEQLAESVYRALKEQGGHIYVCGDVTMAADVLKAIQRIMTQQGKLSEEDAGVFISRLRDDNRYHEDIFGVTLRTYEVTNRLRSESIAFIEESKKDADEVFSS

Row | SMILES | IC50 (Nitric oxide synthase 3) | IC50 (Nitric oxide synthase 1) | IC50 [1] | inhibition at 100 µM (HUVEC) | ED50 (Rattus norvegicus [2]) | IC50 (DLD-1) | Dose (Rattus norvegicus [3]) | ED50 (Rattus norvegicus [4])
1 | NC1=NC(c2cccnc2)Cc2ccsc21 (stereo not given) | – | 260 nM | 2800 nM | – | – | – | – | –
2 | NC1=NC(c2cccs2)Cc2ccsc21 (stereo not given) | 1900 nM | 50 nM | 150 nM | – | – | 9200 nM | – | –
3 | C#CC1Cc2sccc2C(N)=N1 (stereo not given) | 120 nM | 25 nM | 110 nM | – | – | 15000 nM | – | –
4 | C#CC1Cc2ccsc2C(N)=N1 (stereo not given) | 80 nM | 6 nM | 40 nM | – | – | 5800 nM | – | –
5 | C#CC1Cc2cc(C)sc2C(N)=N1 (stereo not given) | 10000 nM | 910 nM | 3500 nM | – | – | – | – | –
6 | NC1=NC(C2CC2)Cc2ccsc21 (stereo not given) | 50 nM | 11 nM | 51 nM | – | – | 3600 nM | – | –
7 | CNC(=N)NCCCC(N)C(=O)O (single isomer, unassigned) [TILARGININE] | – | – | – | – | – | 170000 nM | 100 µM/kg | 100 µmol/kg

Further lines, with some results ahead:

Row | IC50 (Nitric oxide synthase 3) | IC50 (Nitric oxide synthase 1) | IC50 [1] | SMILES | inhibition at 100 µM (HUVEC) | ED50 (Rattus norvegicus [2]) | IC50 (DLD-1) | Dose (Rattus norvegicus [3]) | ED50 (Rattus norvegicus [4])
8 | 280 nM | 550 nM | 730 nM | NC1=NCCc2ccsc21 | – | – | – | – | –
9 | – | 4100 nM | 28000 nM | NC1=NC(C#Cc2ccccc2)Cc2ccsc21 (stereo not given) | < 25% | – | – | – | –
10 | – | 100 nM | 1600 nM | NC1=NCCc2sccc21 | – | – | – | – | –
11 | 920 nM | 40 nM | 89 nM | NC1=NC(c2ccco2)Cc2ccsc21 (stereo not given) | – | 0.4 µmol/kg | 2200 nM | 0.4 µM/kg | –
12 | 9500 nM | 740 nM | 2700 nM | NC1=NC(c2ccccc2)Cc2sccc21 (stereo not given) | – | – | – | – | –
13 | 750 nM | 18 nM | 190 nM | NC1=NC(C2CC2)Cc2sccc21 (stereo not given) | – | – | 8700 nM | – | –
14 | 4000 nM | 140 nM | 8300 nM | NC1=NC(c2ccccc2)Cc2ccsc21 (stereo not given) | – | – | – | – | –
15 | – | 10000 nM | 3600 nM | CC(C)(C)C#CC1Cc2ccsc2C(N)=N1 (stereo not given) | < 25% | – | – | – | –
16 | 5000 nM | 80 nM | 150 nM | CC#CC1Cc2ccsc2C(N)=N1 (stereo not given) | – | – | 34000 nM | – | –
